# Results published in ChEMBL document CHEMBL1201862, “PubChem BioAssay data set” (2004).
#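 The compound was tested at five concentrations on cells cultured in 96-well plates, with a 48-hour exposure period. The concentration for 50% growth inhibition is given as GI50.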 Calls of active or inactive are those of the source. Cut-off read from the data, not from the text of the source: active = GI50 up to about 1.1 µM and inactive = higher.
# Experiments:
# Assay in all cases: growth of human tumour cells (NCI), 48 h
# [1] = test system: HT-29
# [2] = test system: U-251
# [3] = test system: HOP-62
# [4] = test system: MDA-MB-231
# [5] = test system: NCI/ADR-RES
# [6] = test system: K562
# [7] = test system: Hs-578T
# [8] = test system: DU-145
# [9] = test system: T47D
# [10] = test system: MCF7
# [11] = test system: MDA-N
# [12] = test system: UO-31
# [13] = test system: A549
# [14] = test system: M14
# [15] = test system: A498
# [16] = test system: EKVX
# [17] = test system: SNB-75
# [18] = test system: SR
# [19] = test system: Malme-3M
# [20] = test system: BT-549
# [21] = test system: SK-MEL-28
# [22] = test system: NCI-H522
# [23] = test system: LOX IMVI
# [24] = test system: MDA-MB-435
# [25] = test system: CAKI-1
# [26] = test system: RPMI-8226
# [27] = test system: PC-3
# [28] = test system: OVCAR-3
# [29] = test system: SK-OV-3
# [30] = test system: HCT-15
# [31] = test system: NCI-H226
# [32] = test system: SK-MEL-2
# [33] = test system: KM12
# [34] = test system: OVCAR-8
# [35] = test system: ACHN
# [36] = test system: MOLT-4
# [37] = test system: IGROV-1
# [38] = test system: OVCAR-5
# [39] = test system: RXF 393
# [40] = test system: TK-10
# [41] = test system: UACC-257
# [42] = test system: 786-0
# [43] = test system: OVCAR-4
# [44] = test system: UACC-62
# [45] = test system: SF-268
# [46] = test system: NCI-H23
# [47] = test system: SF-295
# [48] = test system: SN12C
# [49] = test system: SNB-19
# [50] = test system: HCC 2998
# [51] = test system: HCT-116
# [52] = test system: CCRF-CEM
# [53] = test system: SW-620
# [54] = test system: COLO 205
# [55] = test system: SK-MEL-5
# [56] = test system: HOP-92
# [57] = test system: NCI-H460
# [58] = test system: SF-539
# [59] = test system: HL-60
compound,measurement,setting,value
[O-][N+](CCO)(CCO)c1ncnc2[nH]cnc12,GI50,[1],> 100 µM (inactive)
same,GI50,[2],> 100 µM (inactive)
same,GI50,[3],> 100 µM (inactive)
same,GI50,[4],> 100 µM (inactive)
same,GI50,[5],> 100 µM (inactive)
same,GI50,[6],> 100 µM (inactive)
same,GI50,[7],> 100 µM (inactive)
same,GI50,[8],> 100 µM (inactive)
same,GI50,[9],> 100 µM (inactive)
same,GI50,[10],76.6 µM (inactive)
same,GI50,[11],> 100 µM (inactive)
same,GI50,[12],> 100 µM (inactive)
same,GI50,[13],> 100 µM (inactive)
same,GI50,[14],> 100 µM (inactive)
same,GI50,[15],> 100 µM (inactive)
same,GI50,[16],> 100 µM (inactive)
same,GI50,[17],> 100 µM (inactive)
same,GI50,[18],> 100 µM (inactive)
same,GI50,[19],> 100 µM (inactive)
same,GI50,[20],> 100 µM (inactive)
same,GI50,[21],> 100 µM (inactive)
same,GI50,[22],> 100 µM (inactive)
same,GI50,[23],> 100 µM (inactive)
same,GI50,[24],> 100 µM (inactive)
same,GI50,[25],> 100 µM (inactive)
same,GI50,[26],> 100 µM (inactive)
same,GI50,[27],> 100 µM (inactive)
same,GI50,[28],> 100 µM (inactive)
same,GI50,[29],> 100 µM (inactive)
same,GI50,[30],> 100 µM
same,GI50,[31],> 100 µM (inactive)
same,GI50,[32],> 100 µM (inactive)
same,GI50,[33],> 100 µM (inactive)
same,GI50,[34],> 100 µM (inactive)
same,GI50,[35],> 100 µM (inactive)
same,GI50,[36],> 100 µM (inactive)
same,GI50,[37],> 100 µM (inactive)
same,GI50,[38],> 100 µM (inactive)
same,GI50,[39],> 100 µM (inactive)
same,GI50,[40],> 100 µM (inactive)
same,GI50,[41],> 100 µM (inactive)
same,GI50,[42],> 100 µM (inactive)
same,GI50,[43],> 100 µM (inactive)
same,GI50,[44],> 100 µM (inactive)
same,GI50,[45],> 100 µM (inactive)
same,GI50,[46],> 100 µM (inactive)
same,GI50,[47],> 100 µM (inactive)
same,GI50,[48],> 100 µM (inactive)
same,GI50,[49],> 100 µM (inactive)
same,GI50,[50],> 100 µM (inactive)
same,GI50,[51],> 100 µM (inactive)
same,GI50,[52],> 100 µM (inactive)
same,GI50,[53],> 100 µM (inactive)
same,GI50,[54],> 100 µM (inactive)
same,GI50,[55],> 100 µM (inactive)
COC(=O)C(C(=O)C(=O)Nc1ccccc1C#N)c1nc2ccc([N+](=O)[O-])cc2nc1O (stereo not drawn),GI50,[1],> 100 µM (inactive)
same,GI50,[2],> 100 µM (inactive)
same,GI50,[3],> 100 µM (inactive)
same,GI50,[4],> 100 µM (inactive)
same,GI50,[5],92.5 µM (inactive)
same,GI50,[7],> 100 µM (inactive)
same,GI50,[8],> 100 µM (inactive)
same,GI50,[56],> 100 µM (inactive)
same,GI50,[9],> 100 µM (inactive)
same,GI50,[10],> 100 µM (inactive)
same,GI50,[11],> 100 µM (inactive)
same,GI50,[12],> 100 µM (inactive)
same,GI50,[13],> 100 µM (inactive)
same,GI50,[14],> 100 µM (inactive)
same,GI50,[16],78 µM (inactive)
same,GI50,[57],> 100 µM (inactive)
same,GI50,[17],> 100 µM (inactive)
same,GI50,[18],> 100 µM (inactive)
same,GI50,[19],> 100 µM (inactive)
same,GI50,[20],> 100 µM (inactive)
same,GI50,[21],> 100 µM (inactive)
same,GI50,[22],53.7 µM (inactive)
same,GI50,[23],> 100 µM (inactive)
same,GI50,[24],> 100 µM (inactive)
same,GI50,[25],> 100 µM (inactive)
same,GI50,[27],> 100 µM (inactive)
same,GI50,[28],> 100 µM (inactive)
same,GI50,[29],> 100 µM (inactive)
same,GI50,[30],> 100 µM
same,GI50,[31],> 100 µM (inactive)
same,GI50,[32],> 100 µM (inactive)
same,GI50,[33],37.8 µM (inactive)
same,GI50,[34],> 100 µM (inactive)
same,GI50,[35],> 100 µM (inactive)
same,GI50,[36],> 100 µM (inactive)
same,GI50,[37],94.4 µM (inactive)
same,GI50,[38],> 100 µM (inactive)
same,GI50,[39],> 100 µM (inactive)
same,GI50,[40],> 100 µM (inactive)
same,GI50,[41],> 100 µM (inactive)
same,GI50,[42],> 100 µM (inactive)
same,GI50,[43],53.3 µM (inactive)
same,GI50,[44],> 100 µM (inactive)
same,GI50,[45],> 100 µM (inactive)
same,GI50,[46],> 100 µM (inactive)
same,GI50,[47],> 100 µM (inactive)
same,GI50,[48],> 100 µM (inactive)
same,GI50,[49],> 100 µM (inactive)
same,GI50,[50],> 100 µM (inactive)
same,GI50,[58],44.5 µM (inactive)
same,GI50,[51],> 100 µM (inactive)
same,GI50,[52],94 µM (inactive)
same,GI50,[53],> 100 µM (inactive)
same,GI50,[54],> 100 µM (inactive)
same,GI50,[55],> 100 µM (inactive)
COC(=O)C1=C(C)NC(C)=C(C(=O)OC)C1c1ccc(N=O)cc1,GI50,[1],13.6 µM (inactive)
same,GI50,[2],17.4 µM (inactive)
same,GI50,[3],23.8 µM (inactive)
same,GI50,[4],11.4 µM (inactive)
same,GI50,[5],20.8 µM (inactive)
same,GI50,[6],1.07 µM (active)
same,GI50,[7],7.31 µM (inactive)
same,GI50,[8],12.9 µM (inactive)
same,GI50,[56],2.54 µM (inactive)
same,GI50,[9],6.62 µM (inactive)
same,GI50,[10],17.9 µM (inactive)
same,GI50,[11],6.75 µM (inactive)
same,GI50,[12],13.2 µM (inactive)
same,GI50,[13],24.5 µM (inactive)
same,GI50,[14],11.2 µM (inactive)
same,GI50,[16],17 µM (inactive)
same,GI50,[57],18.9 µM (inactive)
same,GI50,[17],13.4 µM (inactive)
same,GI50,[18],0.776 µM (active)
same,GI50,[19],11.5 µM (inactive)
same,GI50,[20],8.87 µM (inactive)
same,GI50,[21],17.1 µM (inactive)
same,GI50,[22],1.15 µM (inactive)
same,GI50,[23],5.9 µM (inactive)
same,GI50,[24],16.2 µM (inactive)
same,GI50,[25],8.3 µM (inactive)
same,GI50,[26],1.58 µM (inactive)
same,GI50,[27],15.8 µM (inactive)
same,GI50,[28],13.6 µM (inactive)
same,GI50,[29],16.6 µM (inactive)
same,GI50,[30],9.53 µM
same,GI50,[31],16 µM (inactive)
same,GI50,[32],13.7 µM (inactive)
same,GI50,[33],18.5 µM (inactive)
same,GI50,[34],8.45 µM (inactive)
same,GI50,[35],13.8 µM (inactive)
same,GI50,[36],3.33 µM (inactive)
same,GI50,[37],16.1 µM (inactive)
same,GI50,[38],17.5 µM (inactive)
same,GI50,[39],8.22 µM (inactive)
same,GI50,[40],15.4 µM (inactive)
same,GI50,[59],1.3 µM (inactive)
same,GI50,[41],8.91 µM (inactive)
same,GI50,[42],14.6 µM (inactive)
same,GI50,[43],3.14 µM (inactive)
same,GI50,[44],15.3 µM (inactive)
same,GI50,[45],22.1 µM (inactive)
same,GI50,[46],16.2 µM (inactive)
same,GI50,[47],24.4 µM (inactive)
same,GI50,[48],19.5 µM (inactive)
same,GI50,[49],38.7 µM (inactive)
same,GI50,[50],16.9 µM (inactive)
same,GI50,[58],17.7 µM (inactive)
same,GI50,[51],6.12 µM (inactive)
same,GI50,[52],0.897 µM (active)
same,GI50,[53],3.61 µM (inactive)
same,GI50,[54],8.77 µM (inactive)
same,GI50,[55],16.6 µM (inactive)
